Data on 34 compounds can be found in patent publication US9233979B2, “Compounds that are ERK inhibitors” (Merck Sharp & Dohme Corp., priority 2012, dated 2016).

The structures appear in SMILES notation.

Sequence of phosphorylated active hERK2 enzyme (P28482 whole entry): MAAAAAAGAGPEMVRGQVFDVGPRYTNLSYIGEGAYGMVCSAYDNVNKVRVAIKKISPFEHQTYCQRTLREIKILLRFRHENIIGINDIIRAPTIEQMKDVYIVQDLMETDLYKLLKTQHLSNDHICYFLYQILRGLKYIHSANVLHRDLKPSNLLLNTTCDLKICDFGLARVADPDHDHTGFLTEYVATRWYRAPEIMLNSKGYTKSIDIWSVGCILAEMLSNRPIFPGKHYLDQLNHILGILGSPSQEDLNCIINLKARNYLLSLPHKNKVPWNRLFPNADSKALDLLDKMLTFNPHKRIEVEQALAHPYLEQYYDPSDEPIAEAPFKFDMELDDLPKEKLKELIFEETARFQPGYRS

The first test deals with phosphorylated active hERK2 enzyme (Homo sapiens (Human), UniProt P28482). Nature of the test: Active Human ERK2 (hERK2) Activity Assay (IMAP-FP). Type of test: biochemical. The settings on record: Table 5, 0.5 nM hERK2, 30 μM ATP, 10 point titration, read-out: AERK2 IC50. The method, boiled down:
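IMAP detection beads in buffer with 24 mM NaCl stopped the reaction, and fluorescence polarization was read after 60 min binding.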
Turning to `COC[C@@H](NC(=O)Nc1cc2[nH]nc(N3CCOCC3)c2cn1)c1ccccc1` [Example 30, 1-[(1S)-2-methoxy-1-phenylethyl]-3-(3-morpholin-4-yl-1H-pyrazolo[4,3-c]pyridin-6-yl)urea], the half-inhibitory concentration (IC50) (usually the concentration that gives 50% inhibition) is 0.0004 µM.

For the compound `CCS(=O)(=O)Nc1n[nH]c2cc(NC(=O)N[C@H](C)c3ccccc3)ncc12` [Example 50, (R)—N-(6-(3-(1-Phenylethyl)ureido)-1H-pyrazolo[4,3-c]pyridin-3-yl)ethanesulfonamide], the concentration for half-maximal inhibition (IC50) came out at 0.321 µM.

Regarding `CCNc1n[nH]c2c(C)c(NC(=O)N[C@H](C)c3ccccc3)ncc12` [Example 60, (R)-1-(3-(Ethylamino)-7-methyl-1H-pyrazolo[4,3-c]pyridin-6-yl)-3-(1-phenylethyl)urea], the IC50 is 0.0388 µM.

Consider `COC[C@@H](NC(=O)Nc1cc2[nH]nc(N3CC(OC)C3)c2cn1)c1ccccc1` [Example 6, 1-[3-(3-methoxyazetidin-1-yl)-1H-pyrazolo[4,3-c]pyridin-6-yl]-3-[(1S)-2-methoxy-1-phenylethyl]urea], for which the IC50 amounted to 2.29 µM.

Regarding `CNc1n[nH]c2cc(NC(=O)N[C@H](C)c3ccc(F)cc3)ncc12` [Example 1, 1-[(1R)-1-(4-Fluorophenyl)ethyl]-3-[3-(methylamino)-1H-pyrazolo[4,3-c]pyridin-6-yl]urea], the IC50 was determined as 0.00785 µM.

Still in this test, the particulars now being: Table 6, 0.5 nM hERK2, 30 μM ATP, 10 point titration, read-out: AERK2 IC50.
Consider `Cn1cc2c(n1)CCN(c1n[nH]c3cc(NC(=O)N[C@@H](c4ccc(F)cc4)C(C)(C)O)ncc13)C2` [Example 126, 1-[(1S)-1-(4-fluorophenyl)-2-hydroxy-2-methylpropyl]-3-(2′-methyl-2,′4,′6,′7′-tetrahydro-1H-3,5′-bipyrazolo[4,3-c]pyridin-6-yl)urea], for which the IC50 was found to be 0.0002 µM.

As to `CNc1n[nH]c2cc(NC(=O)N[C@@H](c3ccccc3)[C@H]3CCCO3)ncc12` [Example 145, 1-(3-(methylamino)-1H-pyrazolo[4,3-c]pyridin-6-yl)-3-((S)-phenyl((R)-tetrahydrofuran-2-yl)methyl)urea], the IC50 worked out at 0.0021 µM.

For the compound `CC[C@H](NC(=O)Nc1cc2[nH]nc(N3CCCC3)c2cn1)c1ccccn1` [Example 345, 1-[(1S)-1-pyridin-2-ylpropyl]-3-(3-pyrrolidin-1-yl-1H-pyrazolo[4,3-c]-pyridin-6-yl)urea], the concentration for half-maximal inhibition (IC50) came out at 0.0138 µM.

On to `CCNc1n[nH]c2cc(NC(=O)NC(C(=O)N(C)C)c3ccc(F)cc3)ncc12` (stereo not shown) [Example 414, 2-({[3-(ethylamino)-1H-pyrazolo[4,3-c]-pyridin-6-yl]-carbamoyl}amino)-2-(4-fluorophenyl)-N,N-dimethyl-acetamide], for which the 50% inhibitory concentration (IC50) was determined as 0.413 µM.

For the compound `CC(C)(O)[C@@H](NC(=O)Nc1cc2[nH]nc(N3CCC3)c2cn1)c1ccccc1` [Example 104, 1-(3-azetidin-1-yl-1H-pyrazolo[4,3-c]pyridin-6-yl)-3-[(1S)-2-hydroxy-2-methyl-1-phenylpropyl]urea], the 50% inhibitory concentration (IC50) came to 0.0016 µM.

Regarding `C[C@@H](NC(=O)Nc1cc2[nH]nc(NC(=O)c3ccccn3)c2cn1)c1ccccc1` [Example 212, N-[6-({[(1R)-1-phenylethyl]-carbamoyl}amino)-1H-pyrazolo[4,3-c]pyridin-3-yl]-pyridine-2-carboxamide], the IC50 amounted to 0.0117 µM.

With `CCNc1n[nH]c2cc(NC(=O)N[C@H](C)c3ccc(Cl)cc3)ncc12` [Example 249, 1-[(1R)-1-(4-chlorophenyl)ethyl]-3-[3-(ethylamino)-1H-pyrazolo[4,3-c]pyridin-6-yl]urea], the IC50 worked out at 0.012 µM.

For `COC(=O)Nc1n[nH]c2cc(NC(=O)NC3COc4ccccc4C3)ncc12` (stereo not shown) [Example 294, methyl {6-[(3,4-dihydro-2H-chromen-3-ylcarbamoyl)amino]-1H-pyrazolo[4,3-c]pyridin-3-yl}-carbamate], the 50% inhibitory concentration (IC50) was 0.0264 µM.

As to `COC(C)(C)C(NC(=O)Nc1cc2[nH]nc(N3C[C@@H](C)O[C@@H](C)C3)c2cn1)c1ccc(F)cc1` (stereo partly drawn) [Example 432, 1-{3-[(2R,6S)-2,6-dimethylmorpholin-4-yl]-1H-pyrazolo[4,3-c]-pyridin-6-yl}-3-[1-(4-fluorophenyl)-2-methoxy-2-methylpropyl]urea], the IC50 is 0.0024 µM.

`C[C@@H](NC(=O)Nc1cc2[nH]nc(NC(=O)OC3CCOC3)c2cn1)c1ccc(F)cc1` (stereo partly drawn) [Example 401, tetrahydrofuran-3-yl [6-({[(1R)-1-(4-fluorophenyl)ethyl]carbamoyl}amino)-1H-pyrazolo[4,3-c]pyridin-3-yl]-carbamate]: the 50% inhibitory concentration (IC50) came out at 0.0153 µM.

Consider `CCOC(=O)Nc1n[nH]c2cc(NC(=O)N[C@H](C)c3ccccc3)ncc12` [Example 315, (R)-ethyl(6-(3-(1-phenylethyl)ureido)-1H-pyrazolo[4,3-c]pyridin-3-yl)carbamate], for which the IC50 is 0.01 µM.

In the case of `C[C@@H](NC(=O)Nc1cc2[nH]nc(NC3CCNCC3)c2cn1)c1ccccc1` [Example 162, 1-[(1R)-1-phenylethyl]-3-[3-(piperidin-4-ylamino)-1H-pyrazolo[4,3-c]-pyridin-6-yl]urea], the half-maximal inhibitory concentration (IC50) was determined as 0.165 µM.

Regarding `Nc1n[nH]c2cc(NC(=O)NCc3ccccc3OC(F)F)ncc12` [Example 267, 1-(3-amino-1H-pyrazolo[4,3-c]pyridin-6-yl)-3-[2-(difluoro-methoxy)benzyl]-urea], the concentration for half-maximal inhibition (IC50) was 0.0053 µM.

As for `C[C@@H](NC(=O)Nc1cc2[nH]nc(N3CCc4nn(C)cc4C3)c2cn1)c1ccc(F)cc1` [Example 391, 1-[(1R)-1-(4-fluorophenyl)ethyl]-3-(2′-methyl-2′,4′,6′,7′-tetrahydro-1H-3,5′-bipyrazolo[4,3-c]-pyridin-6-yl)urea], the IC50 is 0.0004 µM.

In the case of `C[C@@H](NC(=O)Nc1cc2[nH]nc(N[C@@H]3COC[C@H]3F)c2cn1)c1ccccc1` [Example 88, 1-(3-{[(3R,4S)-4-fluorotetrahydrofuran-3-yl]amino}-1H-pyrazolo[4,3-c]-pyridin-6-yl)-3-[(1R)-1-phenylethyl]urea], the concentration for half-maximal inhibition (IC50) amounted to 0.0036 µM.

Turning to `C[C@@H](NC(=O)Nc1cc2[nH]nc(NC(=O)N[C@H](C)c3ccc(Cl)c(C(F)(F)F)c3)c2cn1)c1ccc(Cl)c(C(F)(F)F)c1` [Example 310, N′,N″′-1H-pyrazolo[4,3-c]-pyridine-3,6-diylbis(1-{(1R)-1-[4-chloro-3-(trifluoromethyl)-phenyl]ethyl}urea)], the IC50 was 2.45 µM.

In the case of `COC(=O)N[C@H](C(=O)Nc1n[nH]c2cc(NC(=O)N[C@H](C)c3ccc(F)cc3)ncc12)C(C)C` [Example 66, methyl [(1S)-1-{[6-({[(1R)-1-(4-fluoro-phenyl)ethyl]-carbamoyl}-amino)-1H-pyrazolo[4,3-c]-pyridin-3-yl]-carbamoyl}-2-methylpropyl]-carbamate], the concentration for half-maximal inhibition (IC50) turned out to be 0.0316 µM.

On to `COC(=O)Nc1n[nH]c2cc(NC(=O)N[C@H](COC(F)F)c3ccccc3)ncc12` [Example 288, methyl [6-({[(1S)-2-(difluoro-methoxy)-1-phenylethyl]-carbamoyl}amino)-1H-pyrazolo[4,3-c]pyridin-3-yl}-carbamate], for which the concentration for half-maximal inhibition (IC50) worked out at 0.0006 µM.

`CC(=O)Nc1n[nH]c2cc(NC(=O)N[C@@H](c3ccc(F)cc3)C(C)(C)O)ncc12` [Example 395, N-[6-({[(1S)-1-(4-fluorophenyl)-2-hydroxy-2-methylpropyl]-carbamoyl}amino)-1H-pyrazolo[4,3-c]-pyridin-3-yl]-acetamide]: the IC50 is 0.0006 µM.

As for `CNc1n[nH]c2cc(NC(=O)N[C@@H](c3ccccc3)[C@@H]3CCCO3)ncc12` [Example 144, 1-(3-(methylamino)-1H-pyrazolo[4,3-c]pyridin-6-yl)-3-((S)-phenyl((S)-tetrahydrofuran-2-yl)methyl)urea], the IC50 worked out at 0.002 µM.

As to `C[C@@H](NC(=O)Nc1cc2[nH]nc(NC(=O)N[C@H](C)c3ccc(Cl)nc3)c2cn1)c1ccc(Cl)nc1` [Example 312, N′,N″′-1H-pyrazolo[4,3-c]pyridine-3,6-diylbis{1-[(1R)-1-(6-chloropyridin-3-yl)ethyl]urea}], the IC50 is 0.134 µM.

On to `CC(Nc1n[nH]c2cc(NC(=O)N[C@@H](c3ccccc3)C(C)(C)O)ncc12)C(F)(F)F` (stereo partly drawn) [Example 434, 1-[(1S)-2-hydroxy-2-methyl-1-phenylpropyl]-3-{3-[(2,2,2-trifluoro-1-methylethyl)-amino]-1H-pyrazolo[4,3-c]-pyridin-6-yl}urea], for which the IC50 came to 0.0007 µM.

As to `C[C@@H](NC(=O)Nc1cc2[nH]nc(NC3CCCNC3)c2cn1)c1ccccc1` (stereo partly drawn) [Example 164, 1-[(1R)-1-phenylethyl]-3-[3-(piperidin-3-ylamino)-1H-pyrazolo[4,3-c]-pyridin-6-yl]urea], the IC50 was determined as 0.0302 µM.

`CC(CNC(=O)Nc1cc2[nH]nc(N)c2cn1)c1ccccc1` (stereo not shown) [Example 254, 1-(3-amino-1H-pyrazolo[4,3-c]pyridin-6-yl)-3-(2-phenyl-propyl)urea]: the half-inhibitory concentration (IC50) was determined as 0.0577 µM.

Take `C[C@@H](NC(=O)Nc1cc2[nH]nc(NC(=O)CC3CCCCC3)c2cn1)c1ccccc1` [Example 203, 2-cyclohexyl-N-[6-({[(1R)-1-phenylethyl]-carbamoyl}amino)-1H-pyrazolo[4,3-c]pyridin-3-yl]-acetamide]: the IC50 was found to be 0.0036 µM.

Consider `C[C@@H](NC(=O)Nc1cc2[nH]nc(NC3CCOC3)c2cn1)c1ccccc1` (stereo partly drawn) [Example 161, 1-[(1R)-1-phenylethyl]-3-[3-(tetrahydrofuran-3-ylamino)-1H-pyrazolo[4,3-c]pyridin-6-yl]urea], for which the IC50 worked out at 0.0023 µM.

Take `CC(=O)Nc1n[nH]c2cc(NC(=O)N[C@H](C)c3ccccc3)nc(C)c12` [Example 337, (R)—N-(4-methyl-6-(3-(1-phenylethyl)ureido)-1H-pyrazolo[4,3-c]pyridin-3-yl)acetamide]: the 50% inhibitory concentration (IC50) was 0.127 µM.

As to `C[C@@H](NC(=O)Nc1cc2[nH]nc(NC(=O)CN(C)C)c2cn1)c1ccccc1` [Example 208], the 50% inhibitory concentration (IC50) is 0.0278 µM.

In the case of `COC(=O)Nc1n[nH]c2cc(NC(=O)N[C@H]3c4ccccc4OCC[C@H]3O)ncc12` [Example 394, methyl [6-({[(4R,5S)-4-hydroxy-2,3,4,5-tetrahydro-1-benzoxepin-5-yl]-carbamoyl}amino)-1H-pyrazolo[4,3-c]pyridin-3-yl]-carbamate], the IC50 came to 0.0003 µM.
